Article PMC6114901, “An automated screening method for detecting compounds with goitrogenic activity using transgenic zebrafish embryos” (PLoS ONE, 2018)
Entries after “also recorded” stand apart in the source; their conditions may differ.

Test system: thyroglobulin (tg:mCherry reporter gene)
Assay: animal or person
Method: In order to avoid interference of test chemicals with early thyroid gland development, zebrafish embryos were cultured in exposure medium until 48 hours post fertilization (hpf). Subsequently, they were exposed to seven known thyroid endocrine disrupters for 3 days (48 to 120 hpf). The non-goitrogenic compound 3,4-dichloroaniline, that is used as reference compound in the zebrafish acute embryo toxicity test was used as negative control. […] No solvents were used. […] Five concentrations and one control were tested per compound and replicate. In the second replicate the range of concentration was adjusted to improve fitting of concentration-response curves. […] Given the lack of appropriate spectral properties stability of exposure concentrations was not analysed for potassium perchlorate. Embryos were kept in the incubator at 26°C and a 14:10 hours light:dark cycle. The exposure was conducted in crystallisation dishes covered with watchmaker glasses with 30 embryos in 30 ml exposure medium (for exposure medium refer to [26]).
Embryos were positioned ventrally toward the microscope objective. Per embryo a bright field image, an autofocus fluorescence image and a Z-stack of 9 images were obtained. The Z-stack was required in case of autofocus failure and manual selection of the focal plane. Fluorescence images were obtained with 400 ms of fluorescent light exposure at maximal light intensity and a gain of 1. […] However, care was taken, that at least 10 images per concentration and replicates were assessed. To avoid a time bias during the analysis the sequence of wells for analysis was arranged in order to obtain a uniform distribution over the entire period of analysis.
The images were analysed using a KNIME workflow (Version 3.3.3., [29]) with the extension “KNIME image processing”. In brief, images were loaded into the workflow and the background was removed automatically using the “rolling ball” procedure of the image J plugin (rolling ball size set to 50 pixels). Subsequently the area containing the thyroid gland was manually selected by drawing a rectangle around the appropriate region using the interactive annotation node. […] If possible the autofocus images were used. In case that the thyroid gland was out of focus due to the presence of autofluorescing pigment cells, an appropriate image from the Z-stack was selected. All subsequent steps were conducted without any user interaction. […] Finally the sum of pixel (reflecting area of the thyroid gland and intensity of fluorescence) was calculated for the labeled area and used as a proxy of fluorescence intensity (see Fig 1 for an overview of the workflow). For each replicate the sum was of pixels was normalized by setting controls to the value of one. For data of individual embryos see S4 Table. The KNIME workflow used for image analysis is provided as supplement file (S1 Workflow).
To characterize the potency of the investigated goitrogenic compounds, we calculated EC50 values of tg:mcherry fluorescence using the pixel sum obtained from image analysis. For each replicate the fluorescence intensity was normalized by dividing the mean fluorescence intensity of each concentration with the mean control fluorescence intensity. Concentration-response curves of tgmcherry fluorescence were fitted to the data using the Hill-slope equation (Eq 1) and used to estimate EC50 values.
The parameter Min was set to 1 and the slope (p) and the maximum fluorescence (Max) were estimated.

Compound: Nc1ccc(Cl)c(Cl)c1 [3,4-DCA, 3,4-dichloroaniline]
- effect on tg:mCherry fluorescence (zebrafish, in vivo): decreased the fluorescence signal; also recorded: did not induce tg:mCherry fluorescence but led to a concentration dependent reduction in fluorescence

Compound: [K+].[O-][Cl+3]([O-])([O-])[O-] [Potassium perchlorate, potassium perchlorate]
- Normalised mean pixel sum (0.13 µM, replicate 2): 0.90
- Normalised mean pixel sum (0.493827 µM, replicate 1): 1.06
- Normalised mean pixel sum (1.91 µM, replicate 2): 1.30
- Normalised mean pixel sum (7.40741 µM, replicate 1): 0.86
- Normalised mean pixel sum (29 µM, replicate 2): 1.75
- Normalised mean pixel sum (111.111 µM, replicate 1): 1.38
- Normalised mean pixel sum (430 µM, replicate 2): 1.97
- Normalised mean pixel sum (1666.67 µM, replicate 1): 2.55
- Normalised mean pixel sum (6455 µM, replicate 2): 2.16
- Slope (Hill slope of tg:mCherry concentration-response curve): 0.69
- BMD 20 (concentration at which a 20% increase of tg:mCherry fluorescence was observed): 37.6 µM
- EC50 (read-out: EC50 (tg:mCherry induction), exposure 48–120 hpf, Hill-slope model): 137 µM
- TDI (thyroid disruption index = LC50/EC50 tg:mCherry induction): 241
